{
  "source": "ChEMBL document CHEMBL5126537",
  "about": "“Influenza-existing drugs and treatment prospects” (Eur J Med Chem, 2022)",
  "key": {"[1]": {"system": "Influenza A virus", "assay": "Antiviral activity against Influenza A virus A/PR/8/34 (H1N1) infected in MDCK cells assessed as inhibition of viral entry preincubated for 1 hr followed by infection in MDCK cells measured after 1 hr by focus forming assay", "assay_type": "functional, organism-based"}, "[2]": {"assay": "Cytotoxicity against MDCK cells", "assay_type": "toxicity, cell-based, Canis lupus familiaris", "conditions": "dog"}, "[3]": {"assay": "Elimination half life in INH dosed mouse lungs", "assay_type": "ADME, organism-based, Lung", "conditions": "in vivo, inhaled_or_intranasal"}},
  "data": [
    {"compound": "COc1cc(OC)c2c(=O)c(O)c(-c3ccc(OC)c(OC)c3)oc2c1", "values": [
      {"measurement": "IC50", "setting": "[1]", "value": 36, "unit": "µM"}
    ]},
    {"compound": "NC(=O)c1nc(F)c[nH]c1=O", "note": "[FAVIPIRAVIR]", "values": [
      {"measurement": "CC50", "setting": "[2]", "value": "> 2000", "unit": "µg/mL"}
    ]},
    {"compound": "CCCCCCCC(=O)OC[C@@H](O)[C@@H](OC)[C@@H]1OC(C(=O)O)=C[C@H](NC(=N)N)[C@H]1NC(C)=O", "note": "[LANINAMIVIR OCTANOATE]", "values": [
      {"measurement": "t1/2", "setting": "[3]", "value": 41, "unit": "h"}
    ]}
  ]
}
